Experimental data as given in patent US20120053053A1, “PYRIMIDINE DERIVATIVES AND THEIR USE AS HERBICIDES” (SYNGENTA CROP PROTECTION, LLC, priority 2009, published 2012).

How the values were obtained:
Type in all cases: in vivo
[1] = test system: Amaranthus retoflexus (AMARE); test: Post-emergence biological efficacy (percentage damage); details: dose 1,000 g/ha, evaluated after 13 days, 100=total damage, 0=no damage; for pest or weed control at 1000 g/ha: Amaranthus retroflexus, 312 h
Method in brief: (§1)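 Pot-grown plants are cultivated 8 days under glasshouse conditions (24/16 °C, 14 h light, 65% humidity), sprayed at a dose of 250 or 1000 g/ha, kept under the same conditions with twice-daily watering, and rated for damage after 13 days.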

Solanum nigrum (SOLNI) [2] = test: as above; details: dose 1,000 g/ha, evaluated after 13 days, 100=total damage, 0=no damage; for pest or weed control at 1000 g/ha: Solanum nigrum, 312 h
Method in brief: as §1

[3] = test system: Ipomea hederaceae (IPOHE); test: as above; details: dose 1,000 g/ha, evaluated after 13 days, 100=total damage, 0=no damage; for pest or weed control at 1000 g/ha: Ipomoea hederacea, 312 h
Method in brief: as §1

Setaria faberi (SETFA) [4] = test: as above; details: dose 1,000 g/ha, evaluated after 13 days, 100=total damage, 0=no damage; for pest or weed control at 1000 g/ha: Setaria faberi, 312 h
Method in brief: as §1

[5] = test system: Alopecurus myosuroides (ALOMY); test: as above; details: dose 1,000 g/ha, evaluated after 13 days, 100=total damage, 0=no damage; for pest or weed control at 1000 g/ha: Alopecurus myosuroides, 312 h
Method in brief: as §1

[6] = test system: Echinochloa crus-galli (ECHCG); test: as above; details: dose 1,000 g/ha, evaluated after 13 days, 100=total damage, 0=no damage; for pest or weed control at 1000 g/ha: Echinochloa crus-galli, 312 h
Method in brief: as §1

[7] = test system: Amaranthus retoflexus (AMARE); test: Pre-emergence biological efficacy (percentage damage); details: dose 1,000 g/ha, evaluated after 13 days, 100=total damage, 0=no damage; for pest or weed control at 1000 g/ha: Amaranthus retroflexus, 312 h
Method in brief: (§2)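 Percentage damage (100 = total, 0 = none) was assessed 13 days after treatment. Compound was sprayed at a final dose of 250 or 1000 g/ha onto soil sown one day earlier, with plants kept under controlled glasshouse conditions (24/16 °C, 14 h light, 65% humidity).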

Solanum nigrum (SOLNI) [8] = test: as above; details: dose 1,000 g/ha, evaluated after 13 days, 100=total damage, 0=no damage; for pest or weed control at 1000 g/ha: Solanum nigrum, 312 h
Method in brief: as §2

[9] = test system: Ipomea hederaceae (IPOHE); test: as above; details: dose 1,000 g/ha, evaluated after 13 days, 100=total damage, 0=no damage; for pest or weed control at 1000 g/ha: Ipomoea hederacea, 312 h
Method in brief: as §2

Setaria faberi (SETFA) [10] = test: as above; details: dose 1,000 g/ha, evaluated after 13 days, 100=total damage, 0=no damage; for pest or weed control at 1000 g/ha: Setaria faberi, 312 h
Method in brief: as §2

[11] = test system: Alopecurus myosuroides (ALOMY); test: as above; details: dose 1,000 g/ha, evaluated after 13 days, 100=total damage, 0=no damage; for pest or weed control at 1000 g/ha: Alopecurus myosuroides, 312 h
Method in brief: as §2

[12] = test system: Echinochloa crus-galli (ECHCG); test: as above; details: dose 1,000 g/ha, evaluated after 13 days, 100=total damage, 0=no damage; for pest or weed control at 1000 g/ha: Echinochloa crus-galli, 312 h
Method in brief: as §2

| Structure (SMILES) | pest or weed control at 1000 g/ha [1] [%] | pest or weed control at 1000 g/ha (Solanum nigrum (SOLNI) [2]) [%] | pest or weed control at 1000 g/ha [3] [%] | pest or weed control at 1000 g/ha (Setaria faberi (SETFA) [4]) [%] | pest or weed control at 1000 g/ha [5] [%] | pest or weed control at 1000 g/ha [6] [%] | pest or weed control at 1000 g/ha [7] [%] | pest or weed control at 1000 g/ha (Solanum nigrum (SOLNI) [8]) [%] | pest or weed control at 1000 g/ha [9] [%] | pest or weed control at 1000 g/ha (Setaria faberi (SETFA) [10]) [%] | pest or weed control at 1000 g/ha [11] [%] | pest or weed control at 1000 g/ha [12] [%] | further results |
| --- | --- | --- | --- | --- | --- | --- | --- | --- | --- | --- | --- | --- | --- |
| C=Cc1c(N)nc(-c2cc(F)c(F)c(F)c2)nc1C(=O)OC [Compound 63-61, 4-Amino-5-ethenyl-6-methoxycarbonyl-2-(3,4,5-trifluorophenyl)-pyrimidine] | 0 | 20 | 20 | 0 | 0 | 0 | 0 | 0 | 0 | 0 | 0 | 0 |  |
| COC(=O)COc1nc(C2CC2)nc(N)c1C [Compound 2-362, 4-amino-2-cyclopropyl-6-methoxycarbonylmethoxy-5-methylpyrimidine] | 80 | 80 | 80 | 70 | 40 | 60 | 40 | 10 | 30 | 40 | 40 | 10 |  |
| C=Cc1c(N)nc(-c2ccc(Cl)c(Cl)c2)nc1C(=O)OC [Compound 9-61, 4-Amino-2-(3,4-dichlorophenyl)-5-ethenyl-6-methoxycarbonyl-pyrimidine] | 100 | 90 | 70 | 0 | 20 | 20 | 90 | 70 | 10 | 0 | 0 | 30 |  |
| C=Cc1c(N)nc(-c2ccc(Cl)c(N(C)C)c2F)nc1C(=O)OCC(CC)CCCC (stereo not drawn) [Compound 33-393, 4-Amino-2-(4-chloro-3-dimethylamino-2-fluorophenyl)-5-ethenyl-6-(2-ethylhexyloxy) carbonyl-pyrimidine] | 70 | 70 | 70 | 0 | 0 | 20 | 20 | 20 | 0 | 0 | 0 | 0 |  |
| C=Cc1c(N)nc(-c2ccc(Cl)cc2)nc1C(=O)OC [Compound 5-61, 4-Amino-2-(4-chlorophenyl)-5-ethenyl-6-methoxycarbonyl-pyrimidine] | 100 | 100 | 100 | 100 | 80 | 90 | 100 | 90 | 90 | 60 | 60 | 60 |  |
| C/C=C/c1c(N)nc(-c2ccc(Cl)c(OC)c2F)nc1C(=O)OC [27-62 (E)] |  |  |  |  |  |  |  |  |  |  |  |  | Percentage damage AMARE, post-emergence [1]: 100%; Percentage damage SOLNI, post-emergence (Solanum nigrum (SOLNI) [2]): 100%; Percentage damage IPOHE, post-emergence [3]: 90%; Percentage damage SETFA, post-emergence (Setaria faberi (SETFA) [4]): 100%; Percentage damage ALOMY, post-emergence [5]: 90%; Percentage damage ECHCG, post-emergence [6]: 100%; Percentage damage AMARE, pre-emergence [7]: 50%; Percentage damage SOLNI, pre-emergence (Solanum nigrum (SOLNI) [8]): 80%; Percentage damage IPOHE, pre-emergence [9]: 90%; Percentage damage SETFA, pre-emergence (Setaria faberi (SETFA) [10]): 80%; Percentage damage ALOMY, pre-emergence [11]: 90%; Percentage damage ECHCG, pre-emergence [12]: 90% |
